According to BindingDB's records for patent US20250326732 (Pretzel Therapeutics, 2025):

Each compound was assayed against DNA-directed RNA polymerase, mitochondrial (Homo sapiens, UniProt O00411) (assay: Biological/Biochemical Evaluation).
Experimental: The ability of some compounds of the present invention to inhibit POLRMT were determined in a homogeneous TR-FRET Assay using high-throughput screening in a 384-well plate format. […] Detection of the product is facilitated by hybridization of two DNA-oligonucleotide probes to specific and adjacent sequences within the RNA product sequence. Upon annealing of the probes, two fluorophores are coupled directly to an acceptor nucleotide probe (ATTO647, 5′), or introduced via a coupled streptavidin with a biotinylated donor nucleotide probe (Europium cryptate) that is brought into sufficient proximity to serve as a fluorescence-donor-acceptor pair. […] The DNA template is restriction linearized proximal to the promotor 3′-end (pUC-LSP). […] No nucleotide triphosphate mix is added to negative control samples. Microplates with compounds to be tested in the assay are prepared from 10 mM compound stocks in 100% DMSO, equal amounts of DMSO without any compound are added to positive control and negative control samples.

Sequence of DNA-directed RNA polymerase, mitochondrial (O00411 whole entry): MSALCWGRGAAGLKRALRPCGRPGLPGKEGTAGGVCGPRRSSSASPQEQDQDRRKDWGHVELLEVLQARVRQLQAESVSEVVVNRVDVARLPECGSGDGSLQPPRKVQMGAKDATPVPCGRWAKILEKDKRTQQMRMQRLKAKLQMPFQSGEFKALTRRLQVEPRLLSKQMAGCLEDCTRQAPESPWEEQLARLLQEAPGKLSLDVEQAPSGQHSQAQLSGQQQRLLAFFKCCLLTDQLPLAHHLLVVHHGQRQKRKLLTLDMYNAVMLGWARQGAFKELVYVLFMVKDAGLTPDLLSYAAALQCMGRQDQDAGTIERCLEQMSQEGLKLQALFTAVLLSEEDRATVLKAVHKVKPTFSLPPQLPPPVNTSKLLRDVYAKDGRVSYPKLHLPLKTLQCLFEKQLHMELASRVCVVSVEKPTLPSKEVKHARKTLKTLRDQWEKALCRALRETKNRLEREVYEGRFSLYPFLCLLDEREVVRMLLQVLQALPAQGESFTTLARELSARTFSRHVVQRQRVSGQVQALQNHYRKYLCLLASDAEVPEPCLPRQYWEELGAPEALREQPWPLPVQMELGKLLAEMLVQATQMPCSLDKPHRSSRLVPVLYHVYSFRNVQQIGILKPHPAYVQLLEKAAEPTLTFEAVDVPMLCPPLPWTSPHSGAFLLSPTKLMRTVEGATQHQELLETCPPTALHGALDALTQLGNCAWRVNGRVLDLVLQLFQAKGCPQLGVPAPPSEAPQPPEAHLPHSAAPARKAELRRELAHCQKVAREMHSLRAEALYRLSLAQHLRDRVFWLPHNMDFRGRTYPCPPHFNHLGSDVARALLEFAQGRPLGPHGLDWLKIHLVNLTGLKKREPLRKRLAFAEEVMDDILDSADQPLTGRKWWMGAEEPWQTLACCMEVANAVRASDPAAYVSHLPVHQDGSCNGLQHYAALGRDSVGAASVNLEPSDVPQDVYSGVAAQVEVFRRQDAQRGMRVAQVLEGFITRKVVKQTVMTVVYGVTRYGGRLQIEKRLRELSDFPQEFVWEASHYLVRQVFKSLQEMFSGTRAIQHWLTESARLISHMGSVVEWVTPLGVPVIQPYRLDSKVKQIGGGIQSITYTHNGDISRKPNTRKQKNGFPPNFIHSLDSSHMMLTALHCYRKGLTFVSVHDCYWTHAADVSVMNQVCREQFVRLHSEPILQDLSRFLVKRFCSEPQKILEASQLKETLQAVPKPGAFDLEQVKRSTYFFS

| IC50 | Compound |
| --- | --- |
| 0.9 µM | CN(C=CC(N)=O)c1ccc2c(-c3ccc(F)cc3Cl)cc(=O)oc2c1 [US20250326732, Example 137] |
| 17 µM | CC(=Cc1ccc2c(-c3ccccc3C)cc(=O)oc2c1)C(=O)N(C)C [US20250326732, Example 65] |
| 0.3 µM | CC(=Cc1ccc2c(-c3ccccc3C)cc(=O)oc2c1)C(=O)N(C)C [US20250326732, Example 64] |
| 0.9 µM | C=C(Nc1ccc2c(-c3ccccc3C)cc(=O)oc2c1)C(N)=O [US20250326732, Example 189] |
| 17 µM | COC=C(Cc1ccc2c(-c3ccccc3C)cc(=O)oc2c1)C(N)=O [US20250326732, Example 207] |
| 3 µM | COC=C(Cc1ccc2c(-c3ccccc3C)cc(=O)oc2c1)C(N)=O [US20250326732, Example 208] |
| 0.5 µM | CNC(=O)C(C)=Cc1ccc2c(-c3ccccc3C)cc(=O)oc2c1 [US20250326732, Example 66] |
| 0.6 µM | CC(=Cc1ccc2c(-c3ccccc3C)cc(=O)oc2c1)C(N)=O [US20250326732, Example 68] |
| 2 µM | COC=C(Nc1ccc2c(-c3ccccc3)cc(=O)oc2c1)C(N)=O [US20250326732, Example 198] |
| 6 µM | CNC(=O)C(C)=Cc1ccc2c(-c3ccccc3C)cc(=O)oc2c1 [US20250326732, Example 67] |
